Key:
CIAP = settings: read-out: Km value of ATP for CIAP; molybdenum blue based assay; cited from earlier work
HpMTAN = settings: read-out: Km value for AdoHcy (HpMTAN); previously measured; cited from earlier work
[1] = tested on: N[C@@H](Cc1c[nH]cn1)C(=O)O; test: purified protein, by the assay type; settings: pH 8.0; 25.0 °C

In the case of Nc1ncnc2c1ncn2[C@@H]1O[C@H](COP(=O)(O)OP(=O)(O)OP(=O)(O)O)[C@@H](O)[C@H]1O [ATP], the Km (CIAP) is listed as 20.5 µM.
In the case of Nc1ncnc2c1ncn2[C@@H]1O[C@H](CSCC[C@H](N)C(=O)O)[C@@H](O)[C@H]1O [AdoHcy, S-adenosylhomocysteine], the Km (HpMTAN) is given as 5 µM.
EgtD (Mycobacterium tuberculosis H37Rv) gave a Km [1] of 330 ± 35 µM.

— article PMC6128262 (Analytical chemistry, 2018)
